Test results from patent US9629893B2, “Agent derived from tortoise spleen stimulating mammalian hemopoiesis” (BMR Solutions Ltd., priority 2003, dated 2017).

What was measured:
[1] = side effects in patients; cited from earlier work
[2] = cited from earlier work
[3] = tested on: Mice irradiated with a high lethal dose (10 Gy); assay: Survival of lethally irradiated mice (10 Gy) transplanted with BM cells treated with FTGN; type: in vivo; conditions: 6×10^4 cells incubated one hour with 10 μg/ml, 30 days post-transplant
Method: Lethally irradiated mice (10 Gy.) were transplanted with 60.000 donor BM cells previously incubated for 1 hour in the presence ([…]) or absence of FTGN tetrapeptide. Mice survival was pursue during 30 days and compared to control irradiated mice untreated or mice that were transplanted with untreated donor BMC.
Mice irradiated with a high lethal dose (10 Gy) were injected with 6×10^4 cells previously incubated for one hour with 10 μg/ml FTGN tetrapeptide. Mice survival was surveyed for a 30 days period post-transplant.

[4] = FTGN tetrapeptide stability (HPLC); type: physicochemical
Method: FIG. 6a: HPLC chromatogram of FTGN tetrapeptide reconstituted in water after storage at −10° C. for one year.
FIG. 6c: HPLC chromatogram of FTGN tetrapeptide reconstituted in serum and incubated at 37° C. during 4 hours.
Dry freeze long term storage of the FTGN oligopeptide preserved its structural (FIG. 6a) and biological activities. The dry frozen tetrapeptide conserved its physical characteristics after reconstitution in purified water or serum (FIG. 6c) and was stable after four hours of incubation at 37° C.

Irradiated mice (6.5 Gy) = assay: In vivo treatment of irradiated mice with FTGN; conditions: one or two intravenous 50 μg injections (2 or 2 and 24 hours post-irradiation), one month later
Method: Irradiated mice (6.5 Gy) were treated in vivo with the FTGN tetrapeptide. Thirty days after treatment BMC were counted.
Irradiated mice (6.5 Gy) were treated in vivo with the FTGN tetrapeptide. Thirty days after treatment CFU from BM were counted.
Irradiated mice (6.5 Gy) were treated with one or two intravenous 50 μg FTGN tetrapeptide injections (2 or 2 and 24 hours post-irradiation). BM nucleated cells count (FIG. 17) and CFUc (FIG. 18) were examined one month later.

[5] = tested on: Whole body irradiated C57Bl/6J mice; assay: Ex vivo BMC treatment with FTGN, transplantation into whole body irradiated mice; type: in vivo
Method: Mice that were whole-body irradiated with a dose of 7.5 Gy (which is normally considered a lethal dose), were transplanted by intravenous injection with donor's bone marrow cells preincubated ex vivo with different concentrations of the synthetic tetrapeptide.
Bone marrow cells (BMC) were transplanted into mice by intravenous injection, usually 60,000 cells in 0.3 ml of PBS buffer after 2 hours incubation at 37° C. with the examined agent.
Mice spleen colonies (CFUs) were counted using the method of Till and McCulloch [Till J. E. and McCulloch E. A. Radiation Res. (1961) 14: 213] on 9th, 11th and 14th days after irradiation.
CFUc were assayed in semi-solid medium using 2×10^4 cells/plate.
Donor normal BMC (4-6×10^6 cells/nil) from C57 Bl/6J mice were incubated with different concentrations of FTGN tetrapeptide (0.05; 0.1; 0.5; 1.0; 10 and 50 μg/ml) for two hours. Whole body irradiated (7.0 Gy) C57Bl/6J mice were intravenously injected with 6×10^4 treated or control cells. The recovery of the hematopoietic system in the transplanted mice was evaluated from the 4th to the 30th day post-irradiation.

[6] = tested on: Whole body irradiated C57Bl/6J mice; assay: as above; type: in vivo; conditions: 7.5 Gy, treated vs untreated mice (summary)
[7] = tested on: Whole body irradiated (7.0 Gy) C57Bl/6J mice; assay: Optimal FTGN ex vivo treatment concentration, normal or irradiated donor BMC transplanted into irradiated mice; type: in vivo
Method: (§1) Total body irradiated mice (7.0 Gy) were injected with 6×10^4 BMC previously treated with FTGN tetrapeptide at different concentrations (0.1, 0.5, 1.0, 10.0 and 50.0 μg/ml). Spleen colonies were measured 9 days after irradiation and compared to mice transplanted with BMC incubated only with PBS.
as §1, with “Bone marrow cells from femur” for “Spleen colonies”, “counted 4,” for “measured”, “9 and 16” for “9”
Donor BM cells incubated ex vivo in RPMI medium in the presence (10 μg/ml) or absence of FTGN tetrapeptide for 2 hours were transplanted into irradiated recipient mice (7.0 Gy.). Twenty days after transplant BMC/bone were counted.
In order to elucidate the optimal FTGN tetrapeptide treatment concentration needed to achieve maximum recovery of radiation damaged BMC, two sets of donor cells were examined. Donor BMC (4-6×10^6 cells/ml) from normal untreated C57 Bl/6J mice and from in vivo irradiated mice (4.5 Gy) collected 24 hours post-irradiation, were incubated for two hours with different concentrations of FTGN tetrapeptide (0.05; 0.1; 0.5; 1.0; 10 and 50 μg/ml). Whole body irradiated (7.0 Gy) C57Bl/6J mice were intravenously injected with 6×10^4 of each different donor treated cells or with control cells. The recovery of the hematopoietic system in the transplanted mice was evaluated from the 4th to the 30th day post-irradiation.

Bone marrow cells = assay: In vitro incubation of BM cells with FTGN, cloning in methylcellulose medium (myeloid colonies); type: cell-based, mice; conditions: 10 μg/ml, 2 hours; for number of colonies: vs no tetrapeptide
Method: FIG. 7a-c: FTGN tetrapeptide biological activity tested in vitro. BM cells were incubated in vitro in RPMI medium in the presence (10 μg/ml) or absence of FTGN tetrapeptide for 2 hours. Cells were washed and cloned in methylcellulose-containing medium.
Bone marrow cells from normal (non irradiated) mice (4-6×10^6 cells/ml) were incubated for 2 hours with 10 μg/ml tetrapeptide; the cells were washed and cloned in cytokine-supplemented methylcellulose semi-solid medium.
Myeloid colonies formed after two weeks were counted.

[8] = 7.5 Gy, treated vs untreated mice (summary)
[9] = 9th day, vs mice transplanted with non-treated cells

For `NCCCNCCSP(=O)(O)O` [amifostine], the “patients with nausea and vomiting” value [1] is given as “approximately 53%” and the “stability at room temperature once reconstituted” value [2] is given as “quite limited”.

In the case of FTGN (listed as Testudo horsfieldi), the survival [3] is reported as 100%, the “structural and biological activities after dry freeze long term storage” value ([4]; dry freeze storage, −10° C. for one year, reconstituted in water) is reported as “preserved” and the “stability after reconstitution in purified water or serum” value ([4]; four hours of incubation at 37° C.) is reported as “stable”. For the same compound, the “BM repopulation (BM nucleated cells count and CFUc)” value (Irradiated mice (6.5 Gy)) was “increased the BM repopulation”, the spleen weight ([5]; 4th day after transplantation, vs control) was “No difference” and the “number of bone marrow cells (BMC)” value [5, 8] was “increased”. The “number of white blood cells (WBC)” value [5, 8] was “increased”, the spleen growth [5, 8] was “enhanced spleen growth” and the spleen colonies number [5, 9] was “augmented”. For the same compound, the spleen weight [5, 9] was “augmented”, the “peripheral blood white cells counts (WBC)” value ([5]; 16th day) was “improved” and the “total number of nucleated bone marrow cells per femur” value ([5]; 16th day) was “doubled”. For the same compound, the spleen weight ([5]; 16th day, relative to control group) was “lower”, the “colony-forming cells (CFUbm) in the bone marrow” value ([5]; semi-solid medium, 9th and 16th day) was “improvement when low concentrations of the oligopeptide were used” and the “number of spleen colonies” value [6] was “substantially enhanced”. For the same compound, the “ex vivo treatment dose giving the greatest number of nucleated cell in BM” value ([7]; 4, 9 and 16 days after irradiation, 0.05-50 μg/ml tested) was 1 to 10 µg/mL, the “ex vivo treatment dose giving the highest spleen colony forming units (CFUs) count” value ([7]; 9th day, 0.05-50 μg/ml tested) was 1 to 10 µg/mL and the “BM repopulation activity after transplant” value ([7]; donor cells normal or from irradiated (4.5 Gy) mouse, 10 μg/ml, 2 hours) was “accelerated”. The myeloid colony number (Bone marrow cells; BM cells from normal (non irradiated) mice, colonies after two weeks) was “increased colony number”, the number of colonies (Bone marrow cells; ex vivo irradiated cells (4.5 Gy)) was “larger number of colonies” and the number of colonies (Bone marrow cells; in vivo irradiated cells (4.5 Gy)) was “larger number of colonies”.
